Legend:
[1] = Mouse serum triglyceride level measurements; assay type: in vivo; settings: treatment for 15 weeks; compared to the UNT group
Procedure: Mouse serum triglyceride level measurements. Blood samples from the mice were obtained from mouse tails. The analysis of serum triglyceride levels was carried out at the Laboratory of Comparative Pathology of the Memorial Sloan-Kettering Cancer Center. UNT (n=4); 4-NQO (n=3); 4N+B (n=4); 4N+C (n=3), and 4N+B+C (n=4).

[2] = system: mouse tongue mRNA transcriptome; test: RNA-Seq analysis of the mRNA transcriptome of mouse tongues; assay type: in vivo; settings: compared to the 4-NQO group
Procedure: RNA-Seq analysis of the mRNA transcriptome. One part of each mouse tongue (same position on each mouse tongue) was snap frozen in liquid N2 and stored at −70° C. until total RNA extraction. Total tissue RNA was extracted and subjected to Next-Generation Sequencing (RNA-Seq) at the Genomics Resources Core Facility, Weill Cornell Medical College. Bioinfomatics analyses were performed using the Tophat and Cufflink software. (supporting information).
RNA-Seq analysis of mRNA transcriptome. […] The GEO Accession number is GSE54246; embargoed until publication.

[3] = system: GO categories in mouse tongue; test: Gene ontology (GO) analysis of RNA-Seq data; assay type: in vivo; settings: compared to the 4-NQO group
Procedure: Gene ontology (GO) analysis. Gene ontology (GO) analysis (p-value cutoff: 0.00001), using the ConsensusPathDB online tool, was conducted on the Gene Ontology level 3 of the “Biological Process” domain that has predefined, functional sets for enrichment analysis with default parameter settings.

[4] = system: 4-hydroxynonenal (4-HNE), marker of oxidative stress; test: Immunohistochemistry of tongue epithelium: 4-HNE; assay type: in vivo, mouse; settings: compared to the 4-NQO group; antibody staining
Procedure: (§1) Immunohistochemistry. Paraffin embedded tongue sections were stained with various antibodies (supporting information).
(§2) Immunohistochemistry. Paraffin-embedded sections (from two to four mice per group) were deparaffinized and rehydrated, and antigen retrieval was performed using an antigen unmasking solution (Vector Laboratories, H-3300). After quenching endogenous peroxidase with 3% H2O2, the tissue sections were blocked with the blocking reagent (from the M.O.M. kit from Vector Laboratories for 4-HNE) or 10% goat serum (Vector Laboratories). Then, tissue sections were incubated with a 4-HNE antibody (1:700; mouse monoclonal antibody; Abcam, ab48506), a β-catenin antibody (1:400; rabbit polyclonal antibody; Abcam, ab6302), or a MMP9 antibody (1:70; rabbit polyclonal antibody; Abcam, ab38898), respectively, overnight at 4° C. The sections were then incubated with secondary antibodies (1:200, anti-mouse IgG from the M.O.M kit for 4-1-INE; ready-to-use anti-rabbit IgG from the Invitrogen SuperPicture kit for β-catenin and MMP9). As a negative control, sections were stained without incubation with primary antibodies. The signals were visualized based on a peroxidase detection mechanism with 3,3-diaminobenzidine (DAB) used as the substrate. Four to five representative areas of each mouse tongue section from two to four mice per group were photographed and analyzed.

[5] = system: β-catenin; test: Immunohistochemistry of tongue epithelium: β-catenin; assay type: in vivo, mouse; settings: compared to the 4-NQO group; antibody staining
Procedure: as §1, §2

[6] = system: IL-6; test: Immunohistochemistry of tongue epithelium: IL-6; assay type: in vivo, mouse; settings: compared to the 4-NQO group; antibody staining
From the text: (§3) The tongues were fixed, embedded in paraffin, and sectioned. Then the tissue sections were stained with various antibodies (magnification, 200×). Four to five representative areas of each tongue section from two to four mice/group were photographed and analyzed (FIGS. 12A and 12B). Interleukin-6 (IL-6) is a multifunctional cytokine that is involved in the regulation of immune responses and cellular functions. IL-6 levels are enhanced in human oral squamous cell carcinoma and IL-6 is considered a bad prognostic factor in this cancer (Expert Opin Ther Targets. 2013 January; 17(1):53-9). IL-6 protein was detected primarily in the basal layer of tongue epithelium in the UNT samples (FIG. 12A, arrows), but in the 4-NQO treated samples we observed both an increase in the protein level and an expansion of IL-6 signal to the suprabasal layers of the tongue epithelium (FIG. 12A).

[7] = system: MCT4; test: Immunohistochemistry of tongue epithelium: MCT4; assay type: in vivo, mouse; settings: compared to the 4-NQO group; antibody staining
From the text: as §3

[8] = Consumption of drug containing drinking water and diet; assay type: in vivo, mouse; settings: 4-NQO treated mice, 15 week post 4-NQO treatment
From the text: Drug treatments reduce tongue tumor development. All of the mice tolerated the 10 week 4-NQO treatment, and almost all of the mice survived the 15 week post 4-NQO treatment period (A). We determined that the CD1530 in the regular drinking water was stable for at least 7 days at room temperature by HPLC analysis (FIG. 7); thus, we decided to use drinking water as a delivery method because this method is effective and less laborious.

[9] = system: pathways (Reactome, KEGG, MouseCyc) in mouse tongue; test: Pathway enrichment analysis (ConsensusPathDB) of RNA-Seq data
[10] = system: tongue lesions (4-NQO induced oral cavity carcinogenesis); test: 4-NQO mouse oral cavity carcinogenesis model: gross tongue lesion number and severity
[11] = down-regulated vs. 4-NQO group, KEGG
[12] = down-regulated vs. 4-NQO group, Reactome
[13] = upregulated vs. 4-NQO group, KEGG

consumption of drug containing diet vs regular diet [8]: comparable
SMILES: C=C(c1ccc(C(=O)O)cc1)c1cc2c(cc1C)C(C)(C)CCC2(C)C [bexarotene]
serum triglyceride levels [1]: did not change serum triglyceride levels significantly
transcript levels of DNA replication genes (MCM 2-7 and 10, DNA2, LIG1, ORC1, POLA1, PRIM2) [2]: significantly lower transcript levels of the majority of these genes
number of genes with decreased transcript levels ([2]; p<0.05): 614
number of genes with increased transcript levels ([2]; p<0.05): 436
number of genes with significantly different transcript levels ([2]; p<0.05): 1050
GO categories related to cell cycle, DNA replication, and mitosis [3]: most under-expressed
4-HNE levels in tongue samples [4]: lower
β-catenin protein levels in the tongue epithelium [5]: lower β-catenin protein levels
IL-6 protein levels in the tongue epithelium [6]: lower IL-6 protein levels
MCT4 protein levels in the tongue epithelium [7]: lower MCT4 protein levels
candidates contained, pathway Cell cycle-Mus musculus (mouse) [9, 11]: 19 (15.0%)
candidates contained, pathway Complement and coagulation cascades-Mus musculus (mouse) [9, 11]: 21 (27.6%)
candidates contained, pathway Retinol metabolism-Mus musculus (mouse) [9, 11]: 14 (17.7%)
candidates contained, pathway Activation of ATR in response to replication stress [9, 12]: 10 (26.3%)
candidates contained, pathway Activation of the pre-replicative complex [9, 12]: 9 (31.0%)
candidates contained, pathway Cell Cycle [9, 12]: 46 (15.1%)
candidates contained, pathway Cell Cycle Checkpoints [9, 12]: 16 (20.8%)
candidates contained, pathway Cell Cycle, Mitotic [9, 12]: 44 (16.4%)
candidates contained, pathway Common Pathway [9, 12]: 6 (46.2%)
candidates contained, pathway DNA Replication [9, 12]: 34 (21.7%)
candidates contained, pathway DNA Replication Pre-Initiation [9, 12]: 10 (27.8%)
candidates contained, pathway Formation of Fibrin Clot (Clotting Cascade) [9, 12]: 10 (29.4%)
candidates contained, pathway G1/S Transition [9, 12]: 12 (19.4%)
candidates contained, pathway G2/M Checkpoints [9, 12]: 13 (28.9%)
candidates contained, pathway HDL-mediated lipid transport [9, 12]: 7 (41.2%)
candidates contained, pathway Hemostasis [9, 12]: 37 (12.3%)
candidates contained, pathway Lipid digestion, mobilization, and transport [9, 12]: 11 (22.4%)
candidates contained, pathway Lipoprotein metabolism [9, 12]: 11 (35.5%)
candidates contained, pathway M Phase [9, 12]: 22 (22.2%)
candidates contained, pathway M/G1 Transition [9, 12]: 10 (27.8%)
candidates contained, pathway Metabolism of amino acids and derivatives [9, 12]: 21 (16.9%)
candidates contained, pathway Mitotic G1-G1/S phases [9, 12]: 14 (19.2%)
candidates contained, pathway Mitotic M-M/G1 phases [9, 12]: 32 (23.7%)
candidates contained, pathway Mitotic Prometaphase [9, 12]: 21 (22.1%)
candidates contained, pathway Phenylalanine and tyrosine catabolism [9, 12]: 5 (62.5%)
candidates contained, pathway Platelet degranulation [9, 12]: 15 (23.4%)
candidates contained, pathway Response to elevated platelet cytosolic Ca2+ [9, 12]: 15 (21.4%)
candidates contained, pathway Calcium signaling pathway-Mus musculus (mouse) [9, 13]: 15 (8.4%)
candidates contained, pathway Gastric acid secretion-Mus musculus (mouse) [9, 13]: 10 (13.7%)
number of tongue lesions (gross tongue lesion multiplicity) ([10]; C57BL/6 female mice, 4-NQO 10 weeks, then drug in 15 week post 4-NQO period, bexarotene 300 mg/kg diet, CD1530 […]100 ml drinking water, 4-NQO group 5.9±3.2): 5.3±1.4
average severity of tongue lesions (grade 0-4) ([10]; same model, 4-NQO group 2.8±0.8): 1.9±1.2
lesions at grade 1 ([10]; same model, 4-NQO group all lesions at or greater than grade 2): 50%

Reference: patent US10265378B2, “Combination therapy for head and neck cancer” (Cornell University, priority 2014, dated 2019)
